For assay [1], the system named is platelets (aggregation induced with collagen, arachidonic acid, ADP or PAF). Put plainly: Effect in inhibiting aggulutination of platelets (in vitro), human platelet-rich plasma. Format: cell-based. How it is done:
1. Effect in inhibiting aggulutination of platelets […]
The blood was collected from a human cubital vein in such a manner as to contain a 3.8% solution of sodium citrate in an amount 1.10 time by volume as much as the blood. Then platelet-rich plasma (PRP) was prepared therefrom according to the method reported by Packham et al. (ct. Packham, M. A., et al, J. Exp. Med., 126, 171-189 (1967)). To 0.2 ml of the obtained PRP, 25 μl portions of solutions of each compound of the present invention (A to E) at various concentrations were added and incubated at 37° C. for three minutes. Then the aggultination of platelets was induced with arachidonic acid, collagen, ADP and PAF. The aggulutination of platelets was evaluated according to the method reported by Mustard et al. (cf. Mustard, J. F., et al., J. Lab. Clin. Med., 64, 548-559 […] with the use of an aggregometer available from Schenko or Niko Bioscience Co. In other words, this test is carried out to examine the effect of platelet aggregation (in vitro).
(§1) The tests were conducted in the same way as shown before from the diphenylethylene derivative. Results for inhibition of aggulutination are shown in Table 3 for the in-vitro test and in Table for the ex-vivo test. The acute toxicity test provided the same results as obtained with the diphenylethylene derivative.

Assay [2] has as its system platelets (aggregation induced by collagen or arachidonic acid). Briefly: Effect of inhibiting aggultination of platelets (ex vivo), oral administration to guinea pigs. Format: in vivo. To be noted: Cavia porcellus, Platelet, 2 h. Here is the method:
2. Effect of inhibiting aggultination of platelets (ex vivo)
The compound A to E, which were typical examples of the compound of the present invention, were orally administered to guinea pigs. After two hours, the blood of each animal was collected from the abdominal aorta thereof under etherization. Then the effect of each compound on the aggultination of platelets induced by collagen (3 μg/ml) and arachidonic acid (50 μM) was examined. […] In other words, this test is conducted to examine the effect of platelet aggregation (ex vivo).
as §1

The mark [3] stands for this setting: ADP-induced, human PRP, incubated at 37° C. for three minutes, in vitro, read-out: Effect of inhibiting ADP aggultination IC50.
Where [4] appears, read: PAF-induced, human PRP, incubated at 37° C. for three minutes, in vitro, read-out: Effect of inhibiting PAF aggultination IC50.
Setting [5] is: arachidonic acid-induced, human PRP, incubated at 37° C. for three minutes, in vitro, read-out: Effect of inhibiting arachidonic acid aggultination IC50.
Where [6] appears, read: collagen-induced, human PRP, incubated at 37° C. for three minutes, in vitro, read-out: Effect of inhibiting collagen aggultination IC50.
Where [7] appears, read: guinea pigs, oral, two hours after administration, arachidonic acid (50 μM), ex vivo, read-out: Effect of inhibiting arachidonic acid aggultination ED50.
[8] abbreviates: guinea pigs, oral, two hours after administration, collagen (3 μg/ml), ex vivo, read-out: Effect of inhibiting collagen aggultination ED50.

Read-outs that look alike come from different tables or passages of the source.

For `COc1ccc(C(=CC(=O)NCc2ccccc2)c2ccc(OC)cc2)cc1` [Cpd. A, N-Benzyl-3,3-bis(4-methoxyphenyl)acrylamide], the IC50 amounted to 5000 nM in assay [1] (setting [3]), 15000 nM in assay [1] (setting [4]), 5000 nM in assay [1] (setting [5]) and 20000 nM in assay [1] (setting [6]). In addition, the ED50 in assay [2] (setting [7]) and in assay [2] (setting [8]) was 100 mg/kg throughout.

For `COc1ccc(C(=CCNS(=O)(=O)c2ccccc2)c2ccc(OC)cc2)cc1` [Cpd. B, N-[3,3-Bis(4-methoxyphenyl)allyl]benzensulfonamide], the IC50 stood at 2000 nM in assay [1] (setting [3]), 2500 nM in assay [1] (setting [4]), 900 nM in assay [1] (setting [5]) and 1400 nM in assay [1] (setting [6]). Also, the ED50 in assay [2] (setting [7]) and in assay [2] (setting [8]) was 20 mg/kg in each case.

For `CCOC(=O)CCC(C#N)=C(c1ccc(OC)cc1)c1ccc(OC)cc1` [Cpd. C, Ethyl 4-cyano-5,5-bis(4-methoxyphenyl)-4-pentenoate], the IC50 turned out to be 200 nM in assay [1] (setting [3]), 1800 nM in assay [1] (setting [4]), 70 nM in assay [1] (setting [5]) and 200 nM in assay [1] (setting [6]). In addition, the results for the ED50 in assay [2] (setting [7]) and in assay [2] (setting [8]) were 0.03 mg/kg and 0.05 mg/kg, respectively.

For `COc1ccc(C(=C(C#N)CCC(=O)O)c2ccc(OC)cc2)cc1` [Cpd. D, 4-Cyano-5,5-bis(4-methoxyphenyl)4-pentenoic acid], the IC50 amounted to 1900 nM in assay [1] (Homo sapiens, read-out: Effect of inhibiting ADP aggultination IC50); 2800 nM in assay [1] (Homo sapiens, read-out: Effect of inhibiting PAF aggultination IC50); 800 nM in assay [1] (Homo sapiens, read-out: Effect of inhibiting arachidonic acid aggultination IC50); 1700 nM in assay [1] (Homo sapiens, read-out: Effect of inhibiting collagen aggultination IC50). Besides, the ED50 came out at 0.03 mg/kg in assay [2] (po, read-out: Effect of inhibiting arachidonic acid aggultination ED50) and 0.05 mg/kg in assay [2] (po, read-out: Effect of inhibiting collagen aggultination ED50).

Take `COC(=O)CCCC(C#N)=C(c1ccc(OC)cc1)c1ccc(OC)cc1` [Cpd. E, Methyl 5-cyano-6,6-bis(4-methoxyphenyl)-5-hexenoate]: the IC50 in assay [1] (setting [3]) was found to be 200 nM; in assay [1] (setting [4]) it was 1300 nM; in assay [1] (setting [5]) it was 60 nM; in assay [1] (setting [6]) it was 150 nM. The 50% effective dose (ED50) in assay [2] (setting [7]) is 0.3 mg/kg; in assay [2] (setting [8]), 1 mg/kg.

As to `CCOC(=O)CC(=O)CON=C(c1ccc(OC)cc1)c1ccc(OC)cc1` [Cpd. L, 4,4'-dimethoxybenzophenone-O-(3-ethoxycarbonyl-2-oxopropyl)oxime], the IC50 in assay [1] (setting [3]) was found to be 800 nM; in assay [1] (setting [4]), 1200 nM; in assay [1] (setting [5]), 100 nM; in assay [1] (setting [6]), 500 nM. For the same molecule, the ED50 in assay [2] (setting [7]) and in assay [2] (setting [8]) was 30 mg/kg in each case.

In the case of `CCOC(=O)CC(CON=C(c1ccc(OC)cc1)c1ccc(OC)cc1)=NOC` [Cpd. M, 4,4'-Dimethoxybenzophenone O-(3-ethoxycarbonyl-2-methoxyiminopropyl)oxime], the IC50 stood at 13200 nM in assay [1] (setting [3]), 20000 nM in assay [1] (setting [4]), 12500 nM in assay [1] (setting [5]) and 14000 nM in assay [1] (setting [6]). Besides, the ED50 in assay [2] (setting [7]) and in assay [2] (setting [8]) was 55 mg/kg in each case.

On to `CON=C(CON=C(c1ccc(OC)cc1)c1ccc(OC)cc1)CC(=O)O` [Cpd. N, 4,4'-Dimethoxybenzophenone O-(3-carboxy-2-methoxyiminopropyl)oxime], for which the IC50 in assay [1] (setting [3]) amounted to 5000 nM; in assay [1] (setting [4]), 4100 nM; in assay [1] (setting [5]), 700 nM; in assay [1] (setting [6]) it was 2800 nM. For the same molecule, the ED50 in assay [2] (setting [7]) was determined as 0.3 mg/kg; in assay [2] (setting [8]), 1.3 mg/kg.

With `CCOC(=O)CCC(C#N)ON=C(c1ccc(OC)cc1)c1ccc(OC)cc1` (centres unmarked) [Cpd. O, 4,4'Dimethoxybenzophenone O-(1-cyano-3-ethoxycarbonylpropyl)oxime], the IC50 in assay [1] (setting [3]) came out at 20000 nM; in assay [1] (setting [4]), 14500 nM; in assay [1] (setting [5]) it was 7000 nM; in assay [1] (setting [6]), 14000 nM. The ED50 in assay [2] (setting [7]) amounted to 0.3 mg/kg; in assay [2] (setting [8]), 1 mg/kg.

Turning to `COc1ccc(C(=NOC(C#N)CCC(=O)O)c2ccc(OC)cc2)cc1` (centres unmarked) [Cpd. P, 4,4'-Dimethoxybenzophenone O-(1-cyano-3-carboxypropyl)oxime], the IC50 in assay [1] (setting [3]) was found to be 2700 nM; in assay [1] (setting [4]), 1500 nM; in assay [1] (setting [5]), 400 nM; in assay [1] (setting [6]) it was 1100 nM. Besides, the results for the ED50 in assay [2] (setting [7]) and in assay [2] (setting [8]) were 0.3 mg/kg and 1.1 mg/kg, respectively.

Take `COC(=O)CCCC(C#N)ON=C(c1ccc(OC)cc1)c1ccc(OC)cc1` (centres unmarked) [Cpd. Q, 4,4'-Dimethoxybenzophenone O-(1-cyano-4-methoxycarbonylbutyl)oxime]: the IC50 in assay [1] (setting [3]) is 35000 nM; in assay [1] (setting [4]) it was 37000 nM; in assay [1] (setting [5]) it was 12000 nM; in assay [1] (setting [6]) it was 36000 nM. Further, the ED50 in assay [2] (setting [7]) was 50 mg/kg; in assay [2] (setting [8]), 88 mg/kg.

For `COc1ccc(C(=NOC(C#N)CCCC(=O)O)c2ccc(OC)cc2)cc1` (centres unmarked) [Cpd. R, 4,4'-Dimethoxybenzophenone O-(1-cyano-4-carboxybutyl)oxime], the IC50 in assay [1] (setting [3]) is 85000 nM; in assay [1] (setting [4]), 79000 nM; in assay [1] (setting [5]), 50000 nM; in assay [1] (setting [6]), 80000 nM. For the same molecule, the median effective dose (ED50) in assay [2] (setting [7]) and in assay [2] (setting [8]) was no more than 100 mg/kg throughout.

Consider `Clc1ccccc1CN1CCc2sccc2C1` [Ticlopidine, reference compound], for which the ED50 in assay [2] (setting [7]) is 150 mg/kg; in assay [2] (setting [8]), no more than 200 mg/kg.

By IC50 is commonly meant the point on the concentration scale where inhibition reaches its midpoint. What is called ED50 is the dose at which the effect has come halfway, by size or by number of responders.
